The nature of data set [1]: RP HPLC on octadecyl (C-18/RP-18) column, buffer-MeOH pH 7.4, log kw by extrapolation. It is filed as physicochemical. The settings on record: C18 stationary phase; for log kw C-18: MeOH-buffer pH 7.4, extrapolated intercept; for S: slope of log k vs MeOH content, pH 7.4. From the text: (§1) The retention factors of considered compounds were investigated using five different bonded stationary phases: octadecyl (RP-18), octyl (RP-8), cholesterol (Chol), phosphatidylcholine (IAM), and biphenyl (BPh). Water buffer–methanol mobile phases with pH 7.4 were used. The content of MeOH was varying and it depended on the type of compound and the stationary phase.
For the tested systems, linear relationships were obtained between the retention coefficient log k and the content of MeOH (%) in the mobile phase expressed by the Snyder–Soczewiński equation:log k = log kw + S (% organic modifier)(2) where: log kw—the intercept; S—the slope of regression curve.
Log kw values were estimated by the extrapolation method. Log kw and S parameters are presented in Figure 3, Table 2, and Tables S1–S5 in the Supplementary Materials. These parameters obtained by C-18, C-8, and IAM chromatography are commonly used as lipophilicity descriptors.
(§2) HPLC measurements for C-18, C-8, IAM, Chol, and BPh phases were carried out using a liquid chromatograph Knauer (Knauer, Berlin, Germany) with a single pump working in isocratic mode, a 20 µL simple injection valve, and a UV–visible detector (Knauer, Berlin, Germany) working at 280 nm at room temperature. The retention time of an unretained solute (t0) was determined by the injection of a small amount of citric acid dissolved in water. The mobile phase flow rate was 1 mL/min (0.35 mL/min for Chol). HPLC columns: C18—Eurosil Bioselect 300 × 4 mm, 5 μm; C8—Waters. Symetry 150 × 4.6 mm, 5 μm, 100 Ǻ; IAM—Rexchrom IAM.PC.DD2 100 × 4.6 mm, 12 μm; Chol—Cogent 4 UDC Cholesterol 150 × 2.1 mm, 4 μm; BPh—Kinetex Biphenyl 150 × 4.6 mm, 5 μm were applied.
(§3) Mobile phase for RP-18, RP-8, Chol, and BPh chromatography was composed using 20 mM acetic buffer/MeOH with respective MeOH concentration ranges (volume fractions: C18—from 0.5 to 0.99; C8—from 0.5 to 0.9; IAM—from 0.15 to 0.5; Chol: from 0.45 to 0.9; BPh: from 0.4 to 0.99) to obtain pH = 7.4. In the case of IAM chromatography, phosphate buffer was used. At least five consecutive retention times for five concentrations per every investigated compound for every chromatographic system were measured. Log k parameter was calculated as log k = log (tr−t0/t0), where tr = the retention time of the analyte; t0 = the retention time of an unretained compound.

Data set [2] in a line: Log D(7.4) determination from RP-18 measurements using a standard curve. It is filed as physicochemical. The settings on record: C18 (RP-18) HPLC column with MeOH-water mobile phase; calculated from standard curve (Equation 3) and log kw C18, pH 7.4. The source says: C-18 chromatography was used to determine the distribution coefficient log D(7.4) of the tested compounds using a standard curve. It was constructed for the reference compounds with known experimental log D(7.4) values and studied chromatographically under the same conditions as the analyzed compounds [44] (Table 4). The obtained log kw values were plotted against the log D(7.4) based on BioLoom Database values taken from Andres et al. (Table S6 in the Supplementary Materials). […] In the case of analogues 7 and 14, these differences are the largest and they constitute about 17% and 13%, respectively (Table 4). This means that the obtained log kw values from the C18/MeOH-water (pH = 7.4) chromatographic system reflect the extraction values of log D(7.4) quite well. […] The analytical standards were purchased from Sigma Aldrich […], Darmstadt, Germany). The obtained log kw values from HPLC C-18 were plotted against the log D(7.4) based on BioLoom Database values taken from Andres et al. (Table S6 in the Supplementary Materials).

The conditions of data set [3]: cited from earlier work.
The nature of data set [4]: Comparison of retention (log kw) on RP-18, RP-8, Chol, IAM and BPh stationary phases. Type of data set: physicochemical. The conditions noted are these: for retention, in words: investigated stationary phases.
Source text: as §1
The lowest log kw values can be observed for RP-18 and IAM stationary phases. For most compounds, log kw IAM values have similar values or are lower than those obtained for C18 stationary phase. […] On the octadecyl column the main contribution to retention comes from almost entirely hydrophobic interactions, when in the case of IAM phase there are additional mechanisms involved in interactions as ion pairing and hydrogen bonding. They can be either attractive or repulsive in nature. This depends on the structure of compound and pH.
as §2, §3

Like-named read-outs stand apart in the source and are kept apart here.

For orientation: chromatographic logD means a lipophilicity value derived from retention on a column. With `Oc1ccc(-c2nnc(-c3ccccc3)s2)c(O)c1` [Compound 1], in data set [1], the “log kw C-18” value is 2.537 and the S is reported as −3.494. Further, in data set [2], the chromatographic logD was 2.51.
In the case of `Cc1ccc(Nc2nnc(-c3ccc(O)cc3O)s2)cc1` [Compound 12], in data set [1], the “log kw C-18” value was 2.986 and the S is on record as −4.168. The chromatographic logD in data set [2] is 3.11.
In the case of `O=C(CCCN1CCC(O)(c2ccc(Cl)cc2)CC1)c1ccc(F)cc1` [haloperidol, reference compound], the “log kw C-18” value in data set [1] is reported as 3.012. The “log D(7.4) Bio Loom” value in data set [3] (standards used for calibration curve, BioLoom Database values taken from Andres et al. ref 44) is on record as 2.92.
With `COc1cc(-c2nnc(-c3ccc(O)cc3O)s2)ccc1O` [Compound 8], in data set [1], the “log kw C-18” value is given as 2.545 and the S was −3.785. In data set [2], the chromatographic logD was 2.52. The “retention, in words” value in data set [4] is on record as “relatively low retention factor values”.
Turning to `Oc1ccc(-c2nnc(-c3ccccc3F)s2)c(O)c1` [Compound 3], in data set [1], the “log kw C-18” value is reported as 3.002 and the S is listed as −3.885. For the same compound, the chromatographic logD in data set [2] was 3.13.
For `CC(=O)N1CCN(c2ccc(OCC3COC(Cn4ccnc4)(c4ccc(Cl)cc4Cl)O3)cc2)CC1` (stereo not shown) [ketoconazole, reference compound], in data set [1], the “log kw C-18” value is 3.370.
On to `Oc1ccc(-c2nnc(-c3ccc(Cl)cc3Cl)s2)c(O)c1` [Compound 5], for which, in data set [1], the “log kw C-18” value was 3.678 and the S is −4.438. Also, in data set [2], the chromatographic logD was 4.05.
Regarding `CCN(CC)CC(=O)Nc1c(C)cccc1C` [lidocaine, reference compound], the “log kw C-18” value in data set [1] was 2.079.
As for `c1ccc2ccccc2c1` [naphthalene, reference compound], the “log kw C-18” value in data set [1] is on record as 2.615. Further, the “log D(7.4) Bio Loom” value in data set [3] (pH 7.4) is on record as 3.3.
Turning to `Oc1ccc(-c2nnc(Nc3cccc4ccccc34)s2)c(O)c1` [Compound 16], in data set [1], the “log kw C-18” value is reported as 3.059 and the S is listed as −3.931. In data set [2], the chromatographic logD was 3.21.
For `Oc1cc(O)c(-c2nnc(Nc3ccc(F)cc3)s2)cc1Cl` [Compound 13], in that order: 3.005, −4.173 and 3.14.
For `Cn1c(=O)c2[nH]cnc2n(C)c1=O` [theophylline, reference compound], the “log kw C-18” value in data set [1] is recorded as 0.380.
Turning to `CCOC(=O)c1ccc(Nc2nnc(-c3ccc(O)cc3O)s2)cc1` [Compound 15], in data set [1], the “log kw C-18” value is listed as 3.238 and the S is given as −4.185. Moreover, the chromatographic logD in data set [2] was 3.45.
Take `C[C@]12CCC(=O)C=C1CC[C@@H]1[C@@H]2[C@@H](O)C[C@@]2(C)[C@H]1CC[C@]2(O)C(=O)CO` [hydrocortisone, reference compound]: in data set [1], the “log kw C-18” value is 2.210.
As for `Oc1ccc(-c2nnc(COc3ccc(OC(F)(F)F)cc3)s2)c(O)c1` [Compound 18], in data set [1], the “log kw C-18” value is 2.879 and the S was −3.883. The chromatographic logD in data set [2] is 2.97. In data set [4], the “retention, in words” value was “strongest retained”.
Consider `Cn1c(=O)c2c(ncn2C)n(C)c1=O` [caffeine, reference compound], for which the “log kw C-18” value in data set [1] is 0.802.
With `Oc1ccc(-c2nnc(Nc3ccccc3)s2)c(O)c1` [Compound 11], in data set [1], the “log kw C-18” value is reported as 2.477 and the S is reported as −3.66. Moreover, the chromatographic logD in data set [2] is 2.42. Moreover, the “retention, in words” value in data set [4] was “relatively low retention factor values”.
Taken in the same sequence, the figures for `Oc1ccc(-c2nnc(-c3ccc(C(F)(F)F)cc3)s2)c(O)c1` [Compound 6] were 3.69, −4.696, 4.06 and “strongest retained”.
Taken in the same sequence, the figures for `Oc1cc(O)c(-c2nnc(-c3ccc(OC(F)(F)F)cc3)s2)cc1Cl` [Compound 10] were 3.734, −4.65, 4.12 and “strongest retained”.
On to `Oc1ccc(-c2nnc(-c3ccccc3Cl)s2)c(O)c1` [Compound 4], for which, in data set [1], the “log kw C-18” value was 2.67 and the S is recorded as −3.651. For the same compound, in data set [2], the chromatographic logD is 2.69.
Regarding `CCc1cc(-c2nnc(Nc3ccc(Cl)cc3)s2)c(O)cc1O` [Compound 14], in data set [1], the “log kw C-18” value is 4.296 and the S was −5.335. For the same compound, the chromatographic logD in data set [2] was 4.88. Further, the “retention, in words” value in data set [4] is on record as “strongest retained”.
In the case of `Cc1cccc(-c2nnc(-c3ccc(O)cc3O)s2)c1` [Compound 2], in data set [1], the “log kw C-18” value is on record as 3 and the S is on record as −3.87. The chromatographic logD in data set [2] is 3.13.
Consider `Oc1ccc(-c2nnc(-c3ccc(O)c(O)c3)s2)c(O)c1` [Compound 7], for which, in data set [1], the “log kw C-18” value was 1.907 and the S is recorded as −3.171. Also, the chromatographic logD in data set [2] was 1.66. In addition, the “retention / determined lipophilicity, in words” value in data set [4] (all investigated stationary phases except IAM) is listed as “weakest retention”.
As to `CCCCNc1nnc(-c2cc(Cl)c(O)cc2O)s1` [Compound 17], in data set [1], the “log kw C-18” value is given as 2.78. In addition, the chromatographic logD in data set [2] is 2.83.
`O=[N+]([O-])c1cccc(-c2nnc(-c3ccc(O)cc3O)s2)c1` [Compound 9]: in data set [1], the “log kw C-18” value is reported as 2.512 and the S is −3.432. The chromatographic logD in data set [2] was 2.47. Also, the “retention, in words” value in data set [4] is “relatively low retention factor values”.

Values taken from PMC12525849, “In Silico and RP HPLC Studies of Biologically Active 1,3,4-Thiadiazol-2-yl)-benzene-1,3-diols” (Molecules, 2025).
